# Data taken from article PMC6704710, “Preclinical evaluation of 3D185, a novel potent inhibitor of FGFR1/2/3 and CSF-1R, in FGFR-dependent and macrophage-dominant cancer models” (Journal of Experimental & Clinical Cancer Research : CR, 2019).
# Experiments:
# Assay in all cases: Eurofins kinase panel
# Type in all cases: biochemical
# Details in all cases: read-out: Inhibition rate (%)
# [1] = molecular target: T1, EphB4(h) (Homo sapiens, UniProt P54760)
# T1 construct: purchased Eurofins (KinaseProfiler)
# T1 sequence (P54760 16-987): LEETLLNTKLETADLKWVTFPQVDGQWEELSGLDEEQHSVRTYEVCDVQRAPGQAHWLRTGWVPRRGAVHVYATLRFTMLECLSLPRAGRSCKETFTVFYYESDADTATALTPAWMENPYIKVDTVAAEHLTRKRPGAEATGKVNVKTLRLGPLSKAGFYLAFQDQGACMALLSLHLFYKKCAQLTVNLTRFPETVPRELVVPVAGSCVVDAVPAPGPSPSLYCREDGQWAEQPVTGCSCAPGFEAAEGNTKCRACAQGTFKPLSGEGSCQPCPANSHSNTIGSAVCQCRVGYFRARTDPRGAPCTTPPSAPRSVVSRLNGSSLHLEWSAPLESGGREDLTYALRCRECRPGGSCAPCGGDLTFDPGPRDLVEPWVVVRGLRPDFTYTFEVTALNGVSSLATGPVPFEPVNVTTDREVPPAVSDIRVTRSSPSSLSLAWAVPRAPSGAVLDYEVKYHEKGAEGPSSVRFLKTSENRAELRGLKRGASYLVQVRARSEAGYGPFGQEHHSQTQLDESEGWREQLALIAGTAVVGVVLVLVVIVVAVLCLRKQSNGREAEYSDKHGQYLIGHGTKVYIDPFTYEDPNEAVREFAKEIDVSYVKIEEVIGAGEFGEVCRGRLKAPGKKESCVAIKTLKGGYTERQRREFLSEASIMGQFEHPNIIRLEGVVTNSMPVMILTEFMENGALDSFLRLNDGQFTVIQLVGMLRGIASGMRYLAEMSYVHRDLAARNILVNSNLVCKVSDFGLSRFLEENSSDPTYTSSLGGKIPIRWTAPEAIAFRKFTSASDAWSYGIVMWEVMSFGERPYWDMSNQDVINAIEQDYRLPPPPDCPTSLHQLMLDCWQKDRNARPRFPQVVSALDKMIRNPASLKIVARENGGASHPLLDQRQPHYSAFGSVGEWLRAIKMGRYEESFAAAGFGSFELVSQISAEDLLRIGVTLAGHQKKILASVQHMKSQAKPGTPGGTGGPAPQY
# [2] = molecular target: T2, NEK4(h) (Homo sapiens, UniProt P51957)
# T2 construct: purchased Eurofins (KinaseProfiler)
# [3] = molecular target: T3, Axl(h) (Homo sapiens, UniProt P30530)
# T3 construct: purchased Eurofins (KinaseProfiler)
# T3 sequence (P30530 26-894): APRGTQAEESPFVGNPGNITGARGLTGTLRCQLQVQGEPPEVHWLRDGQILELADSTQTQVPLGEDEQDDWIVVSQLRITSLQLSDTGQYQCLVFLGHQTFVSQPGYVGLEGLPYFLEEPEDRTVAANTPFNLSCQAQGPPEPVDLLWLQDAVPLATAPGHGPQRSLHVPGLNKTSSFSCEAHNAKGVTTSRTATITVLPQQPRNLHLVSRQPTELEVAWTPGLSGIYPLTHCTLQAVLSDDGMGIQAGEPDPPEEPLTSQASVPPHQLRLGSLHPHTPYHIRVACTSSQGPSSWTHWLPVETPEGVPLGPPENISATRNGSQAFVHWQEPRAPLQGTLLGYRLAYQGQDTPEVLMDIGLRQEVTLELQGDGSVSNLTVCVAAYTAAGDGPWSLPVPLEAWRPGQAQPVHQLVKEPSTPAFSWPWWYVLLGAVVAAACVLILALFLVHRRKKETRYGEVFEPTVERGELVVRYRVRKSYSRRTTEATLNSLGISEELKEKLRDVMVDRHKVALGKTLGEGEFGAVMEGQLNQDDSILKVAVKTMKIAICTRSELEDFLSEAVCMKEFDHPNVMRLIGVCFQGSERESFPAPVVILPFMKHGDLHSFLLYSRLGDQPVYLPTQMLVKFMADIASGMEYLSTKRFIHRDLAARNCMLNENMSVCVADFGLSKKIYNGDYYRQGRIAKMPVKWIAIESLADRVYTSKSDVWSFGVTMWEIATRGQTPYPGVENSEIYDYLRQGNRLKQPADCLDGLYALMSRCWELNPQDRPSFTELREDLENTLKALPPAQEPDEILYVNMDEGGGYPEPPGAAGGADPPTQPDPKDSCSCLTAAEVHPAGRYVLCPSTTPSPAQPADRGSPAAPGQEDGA
# [4] = molecular target: T4, IRAK4(h) (Homo sapiens, UniProt Q9NWZ3)
# T4 construct: purchased Eurofins (KinaseProfiler)
# T4 sequence (Q9NWZ3 1-460): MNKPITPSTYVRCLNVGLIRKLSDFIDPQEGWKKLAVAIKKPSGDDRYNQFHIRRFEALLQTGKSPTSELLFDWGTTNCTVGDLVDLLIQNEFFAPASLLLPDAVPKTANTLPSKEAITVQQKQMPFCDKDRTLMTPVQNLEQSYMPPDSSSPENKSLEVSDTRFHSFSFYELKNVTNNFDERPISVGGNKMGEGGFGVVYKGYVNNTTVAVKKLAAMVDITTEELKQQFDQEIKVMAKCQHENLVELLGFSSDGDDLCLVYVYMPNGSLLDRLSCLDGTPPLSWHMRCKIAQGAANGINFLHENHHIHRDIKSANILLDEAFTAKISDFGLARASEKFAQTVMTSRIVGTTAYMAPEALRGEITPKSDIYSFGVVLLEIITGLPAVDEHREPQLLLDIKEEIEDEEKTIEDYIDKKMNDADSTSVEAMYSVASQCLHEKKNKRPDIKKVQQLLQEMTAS
# [5] = molecular target: T5, Lck(h) (Homo sapiens, UniProt P06239)
# T5 construct: purchased Eurofins (KinaseProfiler)
# T5 sequence (P06239 whole entry): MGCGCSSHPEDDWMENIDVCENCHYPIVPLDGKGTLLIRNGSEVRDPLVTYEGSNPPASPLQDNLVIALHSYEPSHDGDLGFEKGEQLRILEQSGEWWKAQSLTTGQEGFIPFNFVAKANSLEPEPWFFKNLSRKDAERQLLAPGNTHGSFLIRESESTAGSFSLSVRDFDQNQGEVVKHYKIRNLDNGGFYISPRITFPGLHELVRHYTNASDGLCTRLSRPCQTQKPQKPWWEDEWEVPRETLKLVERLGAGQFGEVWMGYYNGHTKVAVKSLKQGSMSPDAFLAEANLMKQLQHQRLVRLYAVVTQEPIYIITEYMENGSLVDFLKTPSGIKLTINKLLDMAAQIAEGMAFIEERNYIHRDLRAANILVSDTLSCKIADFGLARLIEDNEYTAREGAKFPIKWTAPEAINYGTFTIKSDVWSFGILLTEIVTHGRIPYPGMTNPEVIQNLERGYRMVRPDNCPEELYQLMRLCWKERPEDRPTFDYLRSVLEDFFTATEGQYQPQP
# T2 sequence (P51957 whole entry): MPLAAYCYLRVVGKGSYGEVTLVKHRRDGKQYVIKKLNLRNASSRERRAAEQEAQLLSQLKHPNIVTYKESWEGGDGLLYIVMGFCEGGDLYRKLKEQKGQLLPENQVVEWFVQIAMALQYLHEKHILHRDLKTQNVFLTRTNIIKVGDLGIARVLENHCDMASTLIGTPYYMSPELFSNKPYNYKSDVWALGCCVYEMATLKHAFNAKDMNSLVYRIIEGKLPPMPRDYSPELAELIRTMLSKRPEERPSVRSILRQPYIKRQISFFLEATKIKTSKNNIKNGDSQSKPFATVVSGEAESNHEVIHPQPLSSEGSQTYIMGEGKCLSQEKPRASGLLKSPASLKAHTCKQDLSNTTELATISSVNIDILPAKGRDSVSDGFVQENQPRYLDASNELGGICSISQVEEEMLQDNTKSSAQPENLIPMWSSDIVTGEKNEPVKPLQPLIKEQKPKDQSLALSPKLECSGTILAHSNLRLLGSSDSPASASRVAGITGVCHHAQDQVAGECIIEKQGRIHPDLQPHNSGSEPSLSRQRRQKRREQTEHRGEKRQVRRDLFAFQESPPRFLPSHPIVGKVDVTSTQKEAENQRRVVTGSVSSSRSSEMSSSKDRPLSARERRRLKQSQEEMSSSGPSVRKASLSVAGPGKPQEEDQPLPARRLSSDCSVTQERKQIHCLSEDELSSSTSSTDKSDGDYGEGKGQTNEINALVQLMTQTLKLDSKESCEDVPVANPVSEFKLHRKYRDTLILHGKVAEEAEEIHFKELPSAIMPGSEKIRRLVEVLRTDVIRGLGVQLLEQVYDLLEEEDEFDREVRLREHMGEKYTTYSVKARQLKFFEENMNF
smiles,measurement,setting,value
COc1cc(OC)c(Cl)c(-c2ccc3c(NC(=O)c4ccc(N5CCNC(C)(C)C5)cc4)n[nH]c3n2)c1Cl [3D185],inhibition at 0.01 µM,[1]; 10 nM,8%
same,inhibition at 0.1 µM,[1]; 100 nM,-5%
same,inhibition at 1 µM,[1]; 1000 nM,2%
same,inhibition at 0.01 µM,[2]; 10 nM,16%
same,inhibition at 0.1 µM,[2]; 100 nM,15%
same,inhibition at 1 µM,[2]; 1000 nM,74%
same,inhibition at 0.01 µM,[3]; 10 nM,-7%
same,inhibition at 0.1 µM,[3]; 100 nM,-9%
same,inhibition at 1 µM,[3]; 1000 nM,26%
same,inhibition at 0.01 µM,[4]; 10 nM,-2%
same,inhibition at 0.1 µM,[4]; 100 nM,-2%
same,inhibition at 1 µM,[4]; 1000 nM,-4%
same,inhibition at 0.01 µM,[5]; 10 nM,22%
same,inhibition at 0.1 µM,[5]; 100 nM,60%
same,inhibition at 1 µM,[5]; 1000 nM,94%
